The source of these data is paper PMC5141252, “In silico Screening and Evaluation of the Anticonvulsant Activity of Docosahexaenoic Acid-Like Molecules in Experimental Models of Seizures” (Iranian Biomedical Journal, 2017).

In test [1] the test system is clonic seizures induced by pentylenetetrazole. The experiment in a line: Pentylenetetrazole seizure test. The test is classed as in vivo. The following applies: mice; for Protection (%): 15 min before PTZ 60 mg/kg i.p.; for ED50 (mM) and 95% CI: PTZ clonic seizures, log-Probit analysis. How it is done: (§1) All compounds were prepared freshly before administration. The compounds were dissolved in DMSO and then were diluted in artificial cerebrospinal fluid consisting (in mM) 124.0 NaCl, 25 NaHCO3, 10 D-glucose,4.4 KCl, 2 MgSO4, 1.25 KH2PO4, and 2 CaCl2. The final concentration of DMSO was maintained at 10%. The pH of the solutions was adjusted at the range of 7.2-7.4. Doses of the compounds were selected based on the preliminary experiments conducted in our laboratory.
(§2) DHA-like molecules were administered by intracerebroventricular (i.c.v.) route according to the method described earlier. Briefly, a 3.5-mm-long needle (27 Gauge) was connected to a 10-μL Hamilton microsyringe. The site of injection was 2 mm lateral to the midline on a line drawn through the anterior base of the ears and 3.5 mm in depth from the surface of skull skin. The solution was injected at a rate of 10 µL/10 s and the needle left in place for 60 s after injection.
Fifteen minutes after i.c.v. injection of the compounds, PTZ (60 mg/kg) was injected to the mice intraperitoneally (i.p.). This time period was selected based on the time course of DHA anticonvulsant activity in mice[6]. The occurrence of colonic seizures was monitored in animals for 30 min.
(§3) Statistical analysis was performed by SPSS for Windows software version 16.0. Data obtained from the seizure tests were expressed as percentage of the protected mice. Fisher’s exact test was used to analyze the data. The dose of the drugs that produced anticonvulsant effect in 50% of the animals (ED50), and its associated 95% confidence interval, was calculated by log-Probit analysis.

For test [2] the test system is unchanged. More on the design: method as in PMID 26018398. The following applies: PTZ test, mice, i.c.v administration; cited from earlier work.
Test [3] has as its system tonic seizures induced by MES. Also on record: method as in PMID 26018398. The following applies: cited from earlier work.
The subject of test [4] is tonic seizures induced by MES. Description: Maximal electroshock seizure test. The test is classed as in vivo. Particulars: mice; for Protection (%): 15 min before MES (50 Hz, 50 mA); for ED50 (mM) and 95% CI: i.c.v., MES tonic seizures, log-Probit analysis. How it is done:
as §1, §2
Fifteen minutes after i.c.v. injection of the compounds, an electrical stimulus (50 Hz, 50 mA, 1 s duration) was delivered to the mice through ear-clip electrodes[6] using a stimulator apparatus (MGH-777, Development of Electronic Industry, Iran).
as §3

Structures are written as SMILES. Marks after values point to notes of the source that are not given here.

As for `O=C(O)Cc1ccccc1` [Phenylacetic acid], the “Protection (%)” value in test [1] (dose 0.0001 M i.c.v.) is on record as 0%; in test [1] (dose 0.001 M i.c.v.), 20%; in test [1] (dose 0.01 M i.c.v.) it was 30%; in test [1] (dose 0.1 M i.c.v.) it was 57.5^a %. Besides, the “ED50 (mM) and 95% CI” value in test [1] (i.c.v.) is listed as 78 mM; in test [1] (i.c.v., listed as Phenylbutyric acid), 78.0 (46.0-156.0) mM.
As for `COc1ccc(CC(=O)O)cc1OC` [3,4-Dimethoxyphenylacetic acid, 3,4-Dimethoxyphenylacetic acid], in test [1] (PTZ and MES seizure tests, i.c.v.), the “anticonvulsant activity (in words)” value is “inactive”.
`CC/C=C\C/C=C\C/C=C\C/C=C\C/C=C\C/C=C\CCC(=O)O` [DHA, Docosahexaenoic acid]: the ED50 in test [2] is 0.00013 mM. In addition, the “inhibition of tonic seizures in the MES model” value in test [3] is given as “not able to inhibit tonic seizures”.
For the compound `CCC(C(=O)O)c1ccccc1` (stereo not shown) [2-Phenylbutyric acid], the “Protection (%)” value in test [1] (dose 0.0001 M i.c.v.) was 0%; in test [1] (dose 0.001 M i.c.v.) it was 30%; in test [1] (dose 0.01 M i.c.v.), 40^b %; in test [1] (dose 0.1 M i.c.v.), 56.6^a %. Moreover, the “ED50 (mM) and 95% CI” value in test [1] (i.c.v.) was 70.0 (25.0-144.2) mM.
Turning to `O=C(O)CCCc1ccccc1` [4-Phenylbutyric acid], the entries for the “Protection (%)” value in test [1] (dose 0.0001 M i.c.v.), in test [1] (dose 0.001 M i.c.v.) and in test [1] (dose 0.01 M i.c.v.) were 25%, 50^b % and 73.3^a %, respectively. The “ED50 (mM) and 95% CI” value in test [1] (i.c.v.) was 4.0 (0.0-7.0) mM.
For `CC(C)(C)C1CCC(C(=O)O)CC1` (stereo not shown) [4-tert-Butylcyclohexanecarboxylic acid], the results for the “Protection (%)” value in test [4] (dose 0.001 M i.c.v.), in test [4] (dose 0.01 M i.c.v.) and in test [4] (dose 0.1 M i.c.v.) were 37.5%, 46.6^b % and 73.3^a %, respectively. Besides, the figures for the “ED50 (mM) and 95% CI” value in test [4] (listed as 4-tert-Butylcyclo-hexanecarboxylic acid) and in test [4] (listed as 4-tert-Butylcyclohexane carboxylic acid) were 637 mM and 29.0 (0.0-66.0) mM, respectively.
With `O=C(O)C1=C[C@@H](O)[C@@H](O)[C@H](O)C1` [Shikimic acid], the “Protection (%)” value is on record as 0% in test [4] (dose 0.01 M i.c.v.), 20.0% in test [4] (dose 0.1 M i.c.v.), 43.3^b % in test [4] (dose 0.5 M i.c.v.) and 70.0^a % in test [4] (dose 1 M i.c.v.). Moreover, the entries for the “ED50 (mM) and 95% CI” value in test [4] and in test [4] (listed as shikimic acid) were 637.0 (418.0-890.0) mM and 29 mM, respectively.
Take `O=C(O)Cc1ccc(-c2ccccc2)cc1` [4-Biphenylacetic acid]: the “Protection (%)” value was 15% in test [1] (dose 0.0001 M i.c.v.), 35% in test [1] (dose 0.001 M i.c.v.), 50% in test [1] (dose 0.0075 M i.c.v.) and 85^a % in test [1] (dose 0.01 M i.c.v.). Moreover, the “ED50 (mM) and 95% CI” value in test [1] (i.c.v.) is on record as 5.0 (3.0-5.0) mM.
